Key:
[1] = target: T1, RICK-STREP 1 (Homo sapiens, UniProt O43353); test: General kinase assay: RICK; format: biochemical; settings: concentration 10 μM; read-out: Inhibitory effect on Target RICK-STREP 1
T1 construct: Strep
Description: (§1) General Assay Protocol for all Kinases [[[…]]] [[[…]]] Reaction Buffer: Final Assay Concentrations: [[[…]]] Pipetting Sequence: • 1) Add 8 μl 50 μM MBP in Reaction Buffer to each well of Assay Plate • 2) Add 10 μl 500 mM EDTA in H2O to C- wells • 3) Add 8 μl 62.5 μCi/ml Adenosine 5'-[γ-^33P]triphosphate+5 μM ATP in Reaction Buffer to each well • 4) Add 8 μl 5 fold concentrated inhibitor in 5% DMSO in Reaction Buffer to each well except to C- and C+ wells • 5) Add 8 μl 5% DMSO in Reaction Buffer to C- and C+ wells • 6) Add 8 μl 5 fold concentrated kinase in Reaction Buffer to each well • 7) Incubate 1 hr at room temperature • 8) Add 10 μl 50 mM EDTA in H2O to each well except to C- wells • 9) Prepare MAPH plates by adding 200 μl 0.75% H3PO4 to each well • 10) Exhaust 0.75% H3PO4 using Millipore vacuum station • 11) Add 60 μl 0.75% H3PO4 to each well of MAPH Filter Plate • 12) Transfer 30 μl sample per well from Assay Plate to corresponding well of MAPH Filter Plate • 13) Incubate 30 min at room temperature • 14) Wash each well of MAPH Filter Plates 3× with 200 μl 0.75% H3PO4 using Millipore vacuum station • 15) Add 20 μl Szintilation Liquid to each well of MAPH Filter Plate • 16) Seal MAPH Filter Plate • 17) Store MAPH Filter Plate 30 min in darkness • 18) Quantify radioactivity

[2] = target: T2, PDGFRbeta GST (Homo sapiens, UniProt P09619); test: General kinase assay: PDGFRbeta; format: biochemical; settings: concentration 10 μM; read-out: Inhibitory effect on Target PDGFRbeta GST
T2 construct: GST
Description: as §1

[3] = target: T3, mycobacterial protein kinase G (PknG) (Mycobacterium tuberculosis, UniProt P9WI73); test: biochemical; settings: read-out: Inhibition of PknG (IC50, [μM])
T3 construct: GST; made in house; host or cells: E. coli BL21

[4] = target: T4, GSK-3beta HIS (Homo sapiens, UniProt P49841); test: General kinase assay: GSK-3beta; format: biochemical; settings: concentration 10 μM; read-out: Inhibitory effect on Target GSK-3beta HIS
T4 construct: His
Description: as §1

[5] = target: T5, SRPK1 GST (Homo sapiens, UniProt Q96SB4); test: General kinase assay: SRPK1; format: biochemical; settings: concentration 10 μM; read-out: Inhibitory effect on Target SRPK1 GST
T5 construct: GST
Description: as §1

[6] = target: CDK2/CycA (Homo sapiens, UniProt P24941); test: General kinase assay: CDK2/CycA; format: biochemical; settings: concentration 10 μM; read-out: Inhibitory effect on Target CDK2/CycA
Description: as §1

[7] = target: T6, CK1-alpha GST (Homo sapiens, UniProt P48729); test: General kinase assay: CK1-alpha; format: biochemical; settings: concentration 10 μM; read-out: Inhibitory effect on Target CK1-alpha GST
T6 construct: GST
Description: as §1

T1 sequence (O43353 whole entry): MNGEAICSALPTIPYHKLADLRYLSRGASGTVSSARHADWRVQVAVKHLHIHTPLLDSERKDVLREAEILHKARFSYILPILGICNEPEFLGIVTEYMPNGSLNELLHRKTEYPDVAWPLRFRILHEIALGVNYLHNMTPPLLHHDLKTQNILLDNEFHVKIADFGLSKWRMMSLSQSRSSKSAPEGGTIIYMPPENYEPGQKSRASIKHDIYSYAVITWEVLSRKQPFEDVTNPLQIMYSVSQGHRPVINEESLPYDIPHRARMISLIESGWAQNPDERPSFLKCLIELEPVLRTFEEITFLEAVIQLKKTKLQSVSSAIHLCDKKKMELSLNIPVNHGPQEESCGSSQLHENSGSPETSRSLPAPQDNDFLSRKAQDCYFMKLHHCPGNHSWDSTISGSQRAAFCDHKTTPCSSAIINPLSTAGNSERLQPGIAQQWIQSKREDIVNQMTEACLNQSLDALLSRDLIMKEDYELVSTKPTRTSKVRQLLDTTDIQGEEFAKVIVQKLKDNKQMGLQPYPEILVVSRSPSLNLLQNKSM
T3 sequence (P9WI73 whole entry): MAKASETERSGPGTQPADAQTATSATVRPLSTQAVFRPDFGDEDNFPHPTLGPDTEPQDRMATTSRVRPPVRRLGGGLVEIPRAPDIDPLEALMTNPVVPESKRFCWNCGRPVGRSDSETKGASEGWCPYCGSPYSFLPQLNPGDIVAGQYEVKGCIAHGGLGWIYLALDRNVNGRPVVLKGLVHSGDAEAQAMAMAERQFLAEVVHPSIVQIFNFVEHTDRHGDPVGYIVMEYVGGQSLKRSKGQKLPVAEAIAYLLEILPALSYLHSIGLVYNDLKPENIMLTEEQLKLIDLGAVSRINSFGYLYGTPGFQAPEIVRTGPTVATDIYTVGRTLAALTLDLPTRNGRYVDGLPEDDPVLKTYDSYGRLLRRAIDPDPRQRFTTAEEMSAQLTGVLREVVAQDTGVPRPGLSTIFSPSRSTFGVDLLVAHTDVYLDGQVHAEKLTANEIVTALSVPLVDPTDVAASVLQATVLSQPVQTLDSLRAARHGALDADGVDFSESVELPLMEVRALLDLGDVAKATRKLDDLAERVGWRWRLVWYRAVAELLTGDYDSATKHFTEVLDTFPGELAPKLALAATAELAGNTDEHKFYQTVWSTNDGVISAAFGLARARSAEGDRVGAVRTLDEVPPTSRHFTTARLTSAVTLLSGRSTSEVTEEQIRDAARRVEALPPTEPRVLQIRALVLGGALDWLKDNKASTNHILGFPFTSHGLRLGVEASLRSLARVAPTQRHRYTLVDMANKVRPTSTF
T6 sequence (P48729 whole entry): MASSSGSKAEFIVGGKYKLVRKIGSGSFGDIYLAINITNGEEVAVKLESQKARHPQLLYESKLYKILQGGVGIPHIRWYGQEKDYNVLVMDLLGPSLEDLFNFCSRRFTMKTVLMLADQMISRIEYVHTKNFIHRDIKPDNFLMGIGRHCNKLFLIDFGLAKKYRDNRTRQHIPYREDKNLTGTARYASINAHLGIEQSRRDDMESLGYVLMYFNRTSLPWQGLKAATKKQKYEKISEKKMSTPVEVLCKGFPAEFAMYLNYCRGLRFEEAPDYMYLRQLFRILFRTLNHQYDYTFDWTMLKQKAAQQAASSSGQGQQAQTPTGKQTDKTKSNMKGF
T5 sequence (Q96SB4 whole entry): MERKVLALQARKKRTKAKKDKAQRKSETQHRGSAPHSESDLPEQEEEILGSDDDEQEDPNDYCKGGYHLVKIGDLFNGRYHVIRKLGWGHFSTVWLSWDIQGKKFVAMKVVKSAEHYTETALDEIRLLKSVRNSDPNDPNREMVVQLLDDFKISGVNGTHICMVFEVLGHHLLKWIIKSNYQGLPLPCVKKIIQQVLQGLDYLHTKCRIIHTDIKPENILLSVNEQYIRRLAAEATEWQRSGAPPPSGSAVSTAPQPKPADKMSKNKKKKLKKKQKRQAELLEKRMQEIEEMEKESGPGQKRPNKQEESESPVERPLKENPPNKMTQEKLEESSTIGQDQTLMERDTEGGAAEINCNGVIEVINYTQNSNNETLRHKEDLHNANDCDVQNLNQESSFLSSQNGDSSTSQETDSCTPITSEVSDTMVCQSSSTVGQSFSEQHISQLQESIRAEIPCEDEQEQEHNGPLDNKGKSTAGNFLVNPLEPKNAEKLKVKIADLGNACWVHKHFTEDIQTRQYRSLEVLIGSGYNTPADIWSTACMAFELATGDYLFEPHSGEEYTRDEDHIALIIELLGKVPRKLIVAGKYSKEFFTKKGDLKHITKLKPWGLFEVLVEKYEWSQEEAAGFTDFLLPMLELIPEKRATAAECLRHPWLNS
T4 sequence (P49841 whole entry): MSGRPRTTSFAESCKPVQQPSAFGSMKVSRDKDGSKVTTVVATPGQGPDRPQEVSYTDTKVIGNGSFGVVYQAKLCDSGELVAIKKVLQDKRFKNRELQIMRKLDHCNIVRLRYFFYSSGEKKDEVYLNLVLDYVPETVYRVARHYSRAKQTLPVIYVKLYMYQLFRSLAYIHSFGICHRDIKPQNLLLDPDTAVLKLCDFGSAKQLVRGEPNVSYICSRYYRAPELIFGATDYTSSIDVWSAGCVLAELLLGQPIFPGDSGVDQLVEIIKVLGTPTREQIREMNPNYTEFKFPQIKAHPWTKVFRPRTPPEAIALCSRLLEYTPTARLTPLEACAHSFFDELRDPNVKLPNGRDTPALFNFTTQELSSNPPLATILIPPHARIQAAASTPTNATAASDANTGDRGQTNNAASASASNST
T2 sequence (P09619 33-1106): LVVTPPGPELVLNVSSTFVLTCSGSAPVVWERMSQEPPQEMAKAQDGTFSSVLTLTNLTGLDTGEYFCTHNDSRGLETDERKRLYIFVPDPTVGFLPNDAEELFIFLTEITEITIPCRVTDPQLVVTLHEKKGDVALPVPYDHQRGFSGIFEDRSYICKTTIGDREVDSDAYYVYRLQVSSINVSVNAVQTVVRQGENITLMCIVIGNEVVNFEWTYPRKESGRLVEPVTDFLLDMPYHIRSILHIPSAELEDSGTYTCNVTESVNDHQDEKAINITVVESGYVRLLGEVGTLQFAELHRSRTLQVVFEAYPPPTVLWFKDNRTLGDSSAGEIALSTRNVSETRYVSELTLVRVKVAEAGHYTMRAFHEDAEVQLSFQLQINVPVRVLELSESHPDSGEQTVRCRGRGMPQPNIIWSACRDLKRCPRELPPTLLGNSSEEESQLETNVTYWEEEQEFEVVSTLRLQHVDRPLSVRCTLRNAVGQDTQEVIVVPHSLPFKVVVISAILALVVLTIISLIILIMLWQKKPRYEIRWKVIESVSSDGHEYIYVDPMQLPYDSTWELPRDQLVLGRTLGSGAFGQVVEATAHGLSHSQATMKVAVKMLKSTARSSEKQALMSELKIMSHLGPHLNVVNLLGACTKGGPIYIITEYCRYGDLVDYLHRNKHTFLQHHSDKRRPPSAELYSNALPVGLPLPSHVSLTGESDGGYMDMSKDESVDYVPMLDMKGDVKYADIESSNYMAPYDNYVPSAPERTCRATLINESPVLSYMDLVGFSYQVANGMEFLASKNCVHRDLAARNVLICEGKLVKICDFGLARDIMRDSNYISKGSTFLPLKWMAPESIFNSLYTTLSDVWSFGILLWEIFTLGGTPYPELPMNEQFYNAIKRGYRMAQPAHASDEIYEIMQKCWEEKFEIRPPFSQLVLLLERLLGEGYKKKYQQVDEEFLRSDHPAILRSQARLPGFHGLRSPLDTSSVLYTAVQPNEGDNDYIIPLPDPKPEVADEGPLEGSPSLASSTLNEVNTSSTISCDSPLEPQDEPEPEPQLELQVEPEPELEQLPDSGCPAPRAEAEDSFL

| SMILES | IC50 [3] [µM] | other results |
| --- | --- | --- |
| NC(=O)c1c(NC(=O)Nc2ccc(F)cc2)sc2c1CCSC2 [Compound C45, 2-[3-(4-Fluoro-phenyl)-ureido]-4,7-dihydro-5H-thieno[2,3-c]thiopyran-3-carboxylic acid amide] | 0.1 to 1 | inhibition at 10 µM [1]: > 50%; inhibition at 10 µM [2]: > 50%; inhibition at 10 µM [4]: > 50%; inhibition at 10 µM [5]: > 50%; inhibition at 10 µM [6]: > 50% |
| CC1CCc2sc(NC(=O)C3CC3)c(C(N)=O)c2C1 (stereo not shown) [Compound D37, 2-(Cyclopropanecarbonyl-amino)-5-methyl-4,5,6,7-tetrahydro-benzo[b]thiophene-3-carboxylic acid amide] | < 0.1 |  |
| NC(=O)c1c(NC(=O)C2CC2)sc2c1CC[S+]([O-])C2 (stereo not shown) [Compound C2, 2-(Cyclopropanecarbonyl-amino)-6-oxo-4,5,6,7-tetrahydro-6λ^4-thieno[2,3-c]thiopyran-3-carboxylic acid amide] | > 10 |  |
| NC(=O)c1c(NC(=O)C2CCC2)sc2c1CCCC2 [Compound D9, 2-(Cyclobutanecarbonylamino)-4,5,6,7-tetrahydro-benzo[b]thiophene-3-carboxylic acid amide] | 1.1 to 10 |  |
| NC(=O)c1c(NC(=O)C2CC2)sc2cc(OCC(=O)NCCO)ccc12 [Compound A8, 2-(Cyclopropanecarbonyl-amino)-6-[(2-hydroxy-ethylcarbamoyl)-methoxy]-benzo[b]thiophene-3-carboxylic acid amide] | 0.1 to 1 |  |
| NC(=O)c1c(NC(=O)C2CCC2)sc2c1CCOC2 [Compound B15, 2-(Cyclobutanecarbonyl-amino)-4,7-dihydro-5H-thieno[2,3-c]pyran-3-carboxylic acid amide] | 1.1 to 10 |  |
| NC(=O)c1c(NC(=O)C2CC2)sc2c1CCOC2 [Compound B1, 2-(Cyclopropanecarbonyl-amino)4,7-dihydro-5H-thieno[2,3-c]pyran-3-carboxylic acid amide] | 0.1 to 1 |  |
| CCOC(=O)Nc1sc2c(Cl)c(O)c(Cl)cc2c1C(N)=O [Compound A120, (3-Carbamoyl-5,7-dichloro-6-hydroxy-benzo[b]thiophen-2-yl)-carbamic acid ethyl ester] |  | melting point: 235 to 240 °C |
| CC(C)=CC(=O)Nc1sc2c(c1C(N)=O)CCOC2 [Compound B17, 2-(3-Methyl-but-2-enoylamino)-4,7-dihydro-5H-thieno[2,3-c]pyran-3-carboxylic acid amide] | 1.1 to 10 |  |
| NC(=O)c1c(NC(=O)C2CC2)sc2c1CCC2 [Compound D196, 2-(Cyclopropanecarbonyl-amino)-5,6-dihydro-4H-cyclopenta[b]thiophene-3-carboxylic acid amide] | < 0.1 |  |
| COc1ccc(NC(=O)Nc2sc3c(c2C(N)=O)CCC(=O)C3)cc1 [Compound D106, 2-[3-(4-Methoxy-phenyl)-ureido]-6-oxo-4,5,6,7-tetrahydro-benzo[b]thiophene-3-carboxylic acid amide] | 0.1 to 1 |  |
| NC(=O)c1c(NC(=O)C2CCCC2)sc2c1CCOC2 [Compound B10, 2-(Cyclopentanecarbonyl-amino)-4,7-dihydro-5H-thieno[2,3-c]pyran-3-carboxylic acid amide] | 1.1 to 10 |  |
| C=CCNC(=S)Nc1sc2c(c1C(N)=O)CCCC2 [Compound D32, 2-(3-Allyl-thioureido)-4,5,6,7-tetrahydro-benzo[b]thiophene-3-carboxylic acid amide] | 1.1 to 10 |  |
| CC(C)C(=O)Nc1sc2c(c1C(N)=O)CCOC2 [Compound B2, 2-Isobutyrylamino-4,7-dihydro-5H-thieno[2,3-c]pyran-3-carboxylic acid amide] | > 10 |  |
| CCOC(=O)N1CCC(NC(=O)Nc2sc3c(c2C(N)=O)CCOC3)CC1 [Compound B181, 4-[3-(3-Carbamoyl-4,7-dihydro-5H-thieno[2,3-c]pyran-2-yl)-ureido]-piperidine-1-carboxylic-acid ethyl ester] | 1.1 to 10 |  |
| NC(=O)c1c(NC(=O)Nc2ccc3c(c2)OCO3)sc2c1CCC(O)C2 (stereo not shown) [Compound D212, 2-(3-Benzo[1,3]dioxol-5-yl-ureido)-6-hydroxy-4,5,6,7-tetrahydro-benzo[b]thiophene-3-carboxylic acid amide] | 0.1 to 1 |  |

| SMILES | IC50 [3] [µM] | other results |
| --- | --- | --- |
| NC(=O)c1c(NC(=O)Nc2ccc(Oc3ccccc3)cc2)sc2c1CCSC2 [Compound C49, 2-[3-(4-Phenoxy-phenyl)-ureido]-4,7-dihydro-5H-thieno[2,3-c]thiopyran-3-carboxylic acid amide] | 1.1 to 10 |  |
| NC(=O)c1c(NC(=O)Nc2ccncc2)sc2c1CCOC2 [Compound B73, 2-(3-Pyridin-4-yl-ureido]-4,7-dihydro-5H-thieno[2,3-c]pyran-3-carboxylic acid amide] |  | inhibition at 10 µM [1]: > 50%; inhibition at 10 µM [7]: > 50%; inhibition at 10 µM [5]: > 50% |
| NC(=O)c1c(NC(=O)NCCc2cccs2)sc2c1CCOC2 [Compound B75, 2-[3-(2-Thiophen-2-yl-ethyl)-ureido]-4,7-dihydro-5H-thieno[2,3-c]pyran-3-carboxylic acid amide] | 0.1 to 1 |  |
| NC(=O)c1c(NC(=O)C2CC2)sc2c1CCC(=NO)C2 [Compound D134, 2-(Cyclopropanecarbonyl-amino)-6-hydroxyimino-4,5,6,7-tetrahydro-benzo[b]thiophene-3-carboxylic acid amide] |  | inhibition at 10 µM [1]: > 50%; inhibition at 10 µM [4]: > 50%; inhibition at 10 µM [7]: > 50% |
| NC(=O)c1c(NC(=O)C2CC2)sc2c1CCC/C2=N\OCc1ccccc1 [Compound D72, E-7-Benzyloxyimino-2-(cyclopropanecarbonyl-amino)-4,5,6,7-tetrahydro-benzo[b]thiophene-3-carboxylic acid amide] | < 0.1 |  |
| NC(=O)c1c(NC(=O)Nc2ccc(I)cc2)sc2c1CCC1(C2)OCCO1 [Compound D175, 2-({[(4-Iodophenyl)amino]carbonyl}amino)-4,7-dihydro-5H-spiro[1-benzothiophene-6,2′-[1,3]dioxolane]-3-carboxamide] | 0.1 to 1 |  |
| CO/N=C1/CCCc2c1sc(NC(=O)C1CC1)c2C(N)=O [Compound D88, Z-2-(Cyclopropanecarbonyl-amino)-7-methoxyimino-4,5,6,7-tetrahydro-benzo[b]thiophene-3-carboxylic acid amide] | < 0.1 |  |
| Cc1ccccc1CNC(=O)Nc1sc2c(c1C(N)=O)CCSC2 [Compound C33, 2-[3-(2-Methyl-benzyl)-ureido]-4,7-dihydro-5H-thieno[2,3-c]thiopyran-3-carboxylic acid amide] | > 10 |  |
| CCC(C)C(=O)Nc1sc2c(c1C(N)=O)CCOC2 (stereo not shown) [Compound B14, 2-(2-Methyl-butyrylamino)-4 ,7-dihydro-5H-thieno[2,3-c]pyran-3-carboxylic acid amide] | > 10 |  |
| CC1OCc2sc(NC(=O)C3CC3)c(C(N)=O)c21 (stereo not shown) [Compound D96, 2-(Cyclopropanecarbonyl-amino)-4-methyl-4,6-dihydro-thieno[2,3-c]furan-3-carboxylic acid amide] | 1.1 to 10 |  |
| CCN(CC)C(=O)c1cc2c(C(N)=O)c(NC(=O)C3CC3)sc2cc1O [Compound A17, 2-(Cyclopropanecarbonyl-amino)-6-hydroxy-benzo[b]thiophene-3,5-dicarboxylic acid 3-amide-5-diethylamid] | 1.1 to 10 |  |
| CC=CC(=O)Nc1sc2c(c1C(N)=O)CCOC2 [Compound B16, 2-But-2-enoylamino-4,7-dihydro-5H-thieno[2,3-c]pyran-3-carboxylic acid amide] | 1.1 to 10 |  |
| NC(=O)c1c(NC(=O)C2CC2)sc2cc(OCCO)ccc12 [Compound A20, 2-(Cyclopropanecarbonyl-amino)-6-(2-hydroxy-ethoxy)-benzo[b]thiophene-3-carboxylic acid amide] | 0.1 to 1 |  |
| CC(C)(C)C(=O)Nc1sc2c(c1C(N)=O)CCOC2 [Compound B18, 2-(2,2-Dimethyl-propionylamino)-4,7-dihydro-5H-thieno[2,3-c]pyran-3-carboxylic acid amide] | > 10 |  |
| NC(=O)c1c(NC(=O)C2CC2)sc2c(Br)c(O)c(Br)cc12 [Compound A38, 5,7-Dibromo-2-(cyclopropanecarbonyl-amino)-6-hydroxy-benzo[b]thiophene-3-carboxylic acid amide] | < 0.1 |  |
